According to PMC12288609 (Bioorganic & medicinal chemistry letters, 2024):
Where two headings read alike, the source gives them in different places. Marks after values point to notes of the source that are not given here.

How the values were obtained:
[1] = Distribution coefficient at pH 7.4 by HPLC-based method; type: physicochemical; settings: pH 7.4, estimated by an HPLC-based method; for chromatographic logD: HPLC-based method (chromatographic retention), read-out: elogD7.4
[2] = IAM chromatography, chromatographic hydrophobicity index; type: physicochemical; settings: pH 7.4 mobile phase
Protocol: Before determining neosubstrate degradation, an obvious effect of fluorination was experimentally specified in this study, i.e., the alteration of lipophilicity. Distribution coefficients at pH 7.4 were determined by an HPLC-based method.[14] As expected, the lipophilicity (elogD7.4) increased due to the introduction of fluorine, and elogD differences were in the range of 0.8 to 1.2 (Table 1). […] The exchange of the glutarimide in 1, 2, 5, and 6 by the barbituric acid unit in 3, 4, 7, and 8 increased lipophilicity by elogD differences of 1.3 to 1.7. Drug-membrane interactions were assessed by a high-throughput HPLC method on an Immobilized Artificial Membrane (IAM) column consisting of monolayers of phospholipids covalently bound to silica particles.[15]
[16] IAM chromatography was performed with a Regis IAM.PC.DD2 column (100 × 4.6 mm, 10 μm, 300 Å) equipped with a guard cartridge at 25 °C as described.[14] Mobile phase A was 50 mM NH4OAc, pH 7.4, mobile phase B was MeCN. The retention times were determined with a gradient of 0 to 95% MeCN from 0 to 6 min, which was kept at 95% until 6.5 min, then dropped to 0% from 6.5 to 7 min, and finally kept at 0% until 9 min. The mobile phase flow rate was 1.5 mL/min. A calibration was performed by plotting the retention times of paracetamol, acetanilide, acetophenone, propiophenone, butyrophenone, valerophenone, and octanophenone against their literature CHI values.[15].

[3] = system: HUVECs; experiment: Endothelial cell tube formation assay
[4] = system: HUVECs; experiment: CCK-8 cell proliferation assay, HUVEC; type: cell-based, human; settings: 48 h
Protocol: (§1) HUVEC cells were cultured as described.[13]
(§2) [19] For the cell proliferation assay, HUVEC (15,000 cells/well) and MM1.S (20,000 cells/well) cells were seeded in a 96-well plate in 50 μL/well and allowed to incubate overnight at 37 °C in 5% CO2. An equal amount of treatment media containing the vehicle (0.5% DMSO), or the test compound was then plated on top of the seeded for 48 hours (HUVEC) or 72 hours (MM1.S). Cell proliferation was evaluated by adding 10 μL of Cell Counting Reagent-8 (CCK-8; Dojindo Laboratories, Rockville, MD) to each well and incubated for 2 hours. Plates were read at absorbance of 450 nm on a microplate reader (SpectraMax iD3, Molecular Devices, San Jose, CA).

[5] = system: multiple myeloma MM1.S cells; experiment: CCK-8 cell proliferation assay, MM1.S; type: cell-based; settings: 10 μM, 72 h
Protocol: as §1, §2

[6] = target: SALL4 (Homo sapiens, UniProt Q96SW2+Q9UJQ4); experiment: SALL4 degradation in HuH6 cells, Western blot; settings: 16 h; for Neosubstrate degradation (%) SALL4: 1.0 μM, Western blot densitometry normalized to DMSO; for SALL4 degradation (Western blot, in words): 1.0 μM (0.1 μM in Fig. S2)
[7] = target: IKZF3 (Homo sapiens, UniProt Q96SW2+Q9UKT9); experiment: IKZF3 degradation in MM.1S cells, Western blot; settings: 16 h; for Neosubstrate degradation (%) IKZF3: 1.0 μM, Western blot densitometry normalized to DMSO; for IKZF3 degradation (Western blot, in words): 1.0 μM (0.1 μM in Fig. S2)
[8] = target: IKZF3-GFP fusion protein (Homo sapiens, UniProt Q96SW2+Q9UKT9); settings: MM.1S cells, 16 h, 0.1 μM, 1.0 μM and 10 μM
Protocol: This method distinguished direct effects on protein degradation from effects that regulate transcriptional expression.
In brief, the plasmid comprised the IMiD-binding zinc finger 2 (ZF2) of IKZF3 fused to eGFP with mCherry in vector backbone. MM.1S cells were lentivirally transduced with the IKZF3-ZF2 reporter and treated with respective compounds for 16 hours. Flow cytometry was performed for the quantification of eGFP and mCherry mean fluorescence intensity. The eGFP/mCherry ratio was indicative of IKZF3-ZF2 degradation levels. Compound-treated samples were normalized to DMSO-treated samples. Data was obtained with biological replicates (n=3) and representmean± SD.
The Artichoke reporter assay was performed as described.[14] Briefly, HEK293T cells were transfected and virus was harvested. MM1.S cells were transduced and treated with the test compounds. Cells were measured on a Cytoflex (Beckman Coulter) flow cytometer. Live single cells expressing mCherry were gated for FITC and histograms displaying counts were plotted and quantified.

[9] = system: HUVECs; settings: cited from earlier work; for Tube formation IC50: endothelial cell tube formation assay, n.i. = no inhibition, tested at 10–100 μM without significant antiangiogenic activity
[10] = target: human TBD (residues 319–425 of human CRBN); set-up: method as in PMID 33310190; settings: affinity to human TBD, n.b. = no significant CRBN binding, cited from earlier work
[11] = Metabolic stability in human liver microsomes
Protocol: Metabolic stability analyses in human liver microsomes were performed by Pharmacelsus (Saarbrücken, Germany) as described.[14].

[12] = cited from earlier work
[13] = Homo sapiens, HUVEC, 18 h, read-out: Inhibition of tube formation (%)

Chain of SALL4 (Q9UJQ4 whole entry): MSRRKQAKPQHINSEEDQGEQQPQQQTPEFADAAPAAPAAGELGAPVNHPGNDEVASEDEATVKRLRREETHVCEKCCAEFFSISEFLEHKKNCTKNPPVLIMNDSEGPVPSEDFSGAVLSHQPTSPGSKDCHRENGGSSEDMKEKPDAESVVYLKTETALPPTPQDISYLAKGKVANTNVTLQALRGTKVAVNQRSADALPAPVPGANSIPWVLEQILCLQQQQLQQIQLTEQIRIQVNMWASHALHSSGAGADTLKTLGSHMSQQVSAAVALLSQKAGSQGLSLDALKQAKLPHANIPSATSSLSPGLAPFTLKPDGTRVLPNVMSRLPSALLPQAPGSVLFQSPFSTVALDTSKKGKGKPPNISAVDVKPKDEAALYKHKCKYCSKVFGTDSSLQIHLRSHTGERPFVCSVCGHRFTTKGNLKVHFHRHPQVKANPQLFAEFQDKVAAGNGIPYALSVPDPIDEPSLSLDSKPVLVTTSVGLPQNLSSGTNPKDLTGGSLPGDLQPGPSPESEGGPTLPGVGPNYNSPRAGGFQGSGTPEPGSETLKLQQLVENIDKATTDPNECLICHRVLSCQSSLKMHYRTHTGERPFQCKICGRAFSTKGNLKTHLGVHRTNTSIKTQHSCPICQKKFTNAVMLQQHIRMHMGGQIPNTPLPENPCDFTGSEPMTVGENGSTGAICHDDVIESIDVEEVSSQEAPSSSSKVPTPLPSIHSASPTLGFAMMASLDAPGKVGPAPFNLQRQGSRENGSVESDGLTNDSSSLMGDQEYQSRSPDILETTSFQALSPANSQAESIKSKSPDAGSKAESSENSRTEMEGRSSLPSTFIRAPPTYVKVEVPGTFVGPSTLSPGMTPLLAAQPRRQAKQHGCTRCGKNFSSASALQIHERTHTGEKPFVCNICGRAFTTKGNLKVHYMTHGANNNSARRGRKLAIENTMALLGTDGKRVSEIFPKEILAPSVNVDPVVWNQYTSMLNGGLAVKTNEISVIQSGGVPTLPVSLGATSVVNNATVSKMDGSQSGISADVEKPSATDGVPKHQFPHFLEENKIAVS
Chain of SALL4 (Q96SW2 whole entry): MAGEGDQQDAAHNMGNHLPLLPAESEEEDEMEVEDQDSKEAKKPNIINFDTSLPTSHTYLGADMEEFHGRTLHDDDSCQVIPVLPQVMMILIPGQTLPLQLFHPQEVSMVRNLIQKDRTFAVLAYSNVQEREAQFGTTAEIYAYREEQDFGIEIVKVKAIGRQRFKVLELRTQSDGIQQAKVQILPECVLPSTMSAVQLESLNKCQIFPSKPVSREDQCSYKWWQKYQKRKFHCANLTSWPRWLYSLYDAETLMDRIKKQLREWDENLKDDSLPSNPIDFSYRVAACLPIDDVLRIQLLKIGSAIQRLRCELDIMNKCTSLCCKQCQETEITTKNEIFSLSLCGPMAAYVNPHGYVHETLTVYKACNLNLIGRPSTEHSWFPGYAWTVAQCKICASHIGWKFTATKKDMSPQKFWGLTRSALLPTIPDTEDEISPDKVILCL
Chain of SALL4 (Q16531 whole entry partner): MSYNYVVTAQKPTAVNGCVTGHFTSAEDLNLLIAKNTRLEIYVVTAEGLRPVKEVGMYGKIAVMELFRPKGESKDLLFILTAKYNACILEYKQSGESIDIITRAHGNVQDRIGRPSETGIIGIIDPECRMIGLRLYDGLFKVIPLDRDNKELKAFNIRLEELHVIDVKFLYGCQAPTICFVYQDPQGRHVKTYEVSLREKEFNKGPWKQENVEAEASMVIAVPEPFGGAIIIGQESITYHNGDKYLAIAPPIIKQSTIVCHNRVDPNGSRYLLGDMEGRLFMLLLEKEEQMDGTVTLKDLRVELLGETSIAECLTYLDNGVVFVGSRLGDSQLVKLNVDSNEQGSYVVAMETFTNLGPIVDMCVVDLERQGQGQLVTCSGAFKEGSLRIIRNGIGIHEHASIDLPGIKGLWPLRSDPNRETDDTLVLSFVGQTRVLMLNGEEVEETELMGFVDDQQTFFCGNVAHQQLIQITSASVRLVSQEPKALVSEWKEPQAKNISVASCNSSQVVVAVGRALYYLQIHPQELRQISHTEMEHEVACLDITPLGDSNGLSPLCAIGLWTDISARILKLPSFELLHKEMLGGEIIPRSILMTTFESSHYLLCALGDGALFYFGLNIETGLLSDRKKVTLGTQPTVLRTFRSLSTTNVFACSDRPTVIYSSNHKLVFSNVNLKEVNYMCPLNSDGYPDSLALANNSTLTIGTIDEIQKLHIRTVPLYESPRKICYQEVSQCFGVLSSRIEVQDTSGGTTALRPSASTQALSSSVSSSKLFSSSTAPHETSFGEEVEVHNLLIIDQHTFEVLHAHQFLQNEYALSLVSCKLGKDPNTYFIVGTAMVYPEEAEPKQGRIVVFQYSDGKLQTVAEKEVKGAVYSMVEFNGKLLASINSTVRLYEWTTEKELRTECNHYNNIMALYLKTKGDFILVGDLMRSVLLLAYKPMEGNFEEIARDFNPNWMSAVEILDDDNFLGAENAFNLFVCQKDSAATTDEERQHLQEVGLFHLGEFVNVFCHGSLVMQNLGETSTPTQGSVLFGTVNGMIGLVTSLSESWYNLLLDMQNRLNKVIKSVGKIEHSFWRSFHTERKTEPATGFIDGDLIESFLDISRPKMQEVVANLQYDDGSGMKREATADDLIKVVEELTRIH
Chain of SALL4 (Q13619 whole entry partner): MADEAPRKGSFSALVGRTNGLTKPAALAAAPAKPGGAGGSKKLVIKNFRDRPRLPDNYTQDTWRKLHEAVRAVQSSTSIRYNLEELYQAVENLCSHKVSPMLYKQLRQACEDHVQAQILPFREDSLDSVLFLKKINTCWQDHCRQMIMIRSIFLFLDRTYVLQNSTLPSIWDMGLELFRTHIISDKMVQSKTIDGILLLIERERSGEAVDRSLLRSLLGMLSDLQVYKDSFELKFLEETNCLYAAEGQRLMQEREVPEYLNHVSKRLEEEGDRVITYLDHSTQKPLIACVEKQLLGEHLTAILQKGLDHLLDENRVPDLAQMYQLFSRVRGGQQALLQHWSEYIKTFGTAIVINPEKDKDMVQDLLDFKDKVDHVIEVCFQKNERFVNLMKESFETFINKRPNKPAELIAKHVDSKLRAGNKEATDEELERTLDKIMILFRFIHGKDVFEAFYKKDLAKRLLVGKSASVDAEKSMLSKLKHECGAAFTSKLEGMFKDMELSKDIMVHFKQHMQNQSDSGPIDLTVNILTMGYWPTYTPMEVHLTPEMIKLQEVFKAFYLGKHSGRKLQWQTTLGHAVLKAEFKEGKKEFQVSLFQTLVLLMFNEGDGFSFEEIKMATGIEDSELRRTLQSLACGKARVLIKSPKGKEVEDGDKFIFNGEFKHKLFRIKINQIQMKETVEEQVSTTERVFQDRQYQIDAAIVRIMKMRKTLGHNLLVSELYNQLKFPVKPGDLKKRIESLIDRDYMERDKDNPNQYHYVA
Chain of SALL4 (P62877 whole entry partner): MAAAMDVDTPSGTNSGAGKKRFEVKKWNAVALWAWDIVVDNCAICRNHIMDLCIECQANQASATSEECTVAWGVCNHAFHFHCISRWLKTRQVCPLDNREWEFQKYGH
Chain of IKZF3 (Q9UKT9 whole entry, the tested form may be a part): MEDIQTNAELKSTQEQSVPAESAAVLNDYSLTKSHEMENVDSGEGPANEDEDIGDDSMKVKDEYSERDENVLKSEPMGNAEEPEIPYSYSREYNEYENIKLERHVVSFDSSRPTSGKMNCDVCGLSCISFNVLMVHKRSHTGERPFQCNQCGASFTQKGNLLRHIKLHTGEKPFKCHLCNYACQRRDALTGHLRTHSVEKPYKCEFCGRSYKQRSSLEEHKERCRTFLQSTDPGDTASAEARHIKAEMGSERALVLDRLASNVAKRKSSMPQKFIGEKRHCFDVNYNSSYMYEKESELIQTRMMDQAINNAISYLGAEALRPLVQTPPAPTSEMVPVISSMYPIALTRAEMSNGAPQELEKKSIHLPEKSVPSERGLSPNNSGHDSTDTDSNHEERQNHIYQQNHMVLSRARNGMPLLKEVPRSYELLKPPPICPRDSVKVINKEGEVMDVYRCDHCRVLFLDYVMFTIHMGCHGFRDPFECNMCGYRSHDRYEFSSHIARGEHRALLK
Chain of IKZF3 (Q96SW2 whole entry, the tested form may be a part): as the sequence (Q96SW2 whole entry) above
Chain of IKZF3 (Q16531 whole entry partner, the tested form may be a part): as the sequence (Q16531 whole entry partner) above
Chain of IKZF3 (Q13619 whole entry partner, the tested form may be a part): as the sequence (Q13619 whole entry partner) above
Chain of IKZF3 (P62877 whole entry partner, the tested form may be a part): as the sequence (P62877 whole entry partner) above
Chain of IKZF3-GFP fusion protein (Q9UKT9 146-168 limits assumed): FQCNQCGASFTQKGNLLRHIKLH
Chain of IKZF3-GFP fusion protein (Q96SW2 whole entry, the tested form may be a part): as the sequence (Q96SW2 whole entry) above
Chain of IKZF3-GFP fusion protein (Q16531 whole entry partner, the tested form may be a part): as the sequence (Q16531 whole entry partner) above
Chain of IKZF3-GFP fusion protein (Q13619 whole entry partner, the tested form may be a part): as the sequence (Q13619 whole entry partner) above
Chain of IKZF3-GFP fusion protein (P62877 whole entry partner, the tested form may be a part): as the sequence (P62877 whole entry partner) above

Compound O=C1CCC(NC(=O)c2ccc(F)c(F)c2F)C(=O)N1 (stereo not shown) [Compound 17] has a chromatographic logD [1] of 0.7, a CHIIAM [2] of 12.2 and an inhibition at 100 µM [3, 13] of 30.3%.

In the case of O=C1CCC(NC(=O)c2cc(F)cc(F)c2)C(=O)N1 (stereo not shown) [Compound 15], the chromatographic logD [1] is reported as 0.6, the CHIIAM [2] is reported as 12.3 and the inhibition at 100 µM [3, 13] is reported as 44.3%.

In the case of O=C1CCC(N2C(=O)c3c(F)c(F)c(F)c(F)c3C2=O)C(=O)N1 (stereo not shown) [Compound 2, Tetrafluoro-thalidomide], the CHIIAM [2] is reported as 17.8, the “Reduction of HUVEC growth” value ([4]; 10 μM) is reported as 48% and the “Reduction of MM1.S growth” value [5] is reported as 95%. The “Antiangiogenic activity in the tube formation assay” value ([3]; 10 μM, HUVECs) was “significantly inhibited tubule formation”, the inhibition at 10 µM [3, 13] was 95.3% and the “Neosubstrate degradation (%) SALL4” value [6] was under 5%. For the same compound, the “Neosubstrate degradation (%) IKZF3” value [7] was under 5%.

In the case of N#Cc1ccc(N2CCN(Cc3ccc(COc4cccc5c4CN([C@H]4CCC(=O)NC4=O)C5=O)cc3)CC2)c(F)c1 [mezigdomide, reference compound], the “Abundance of IKZF3-GFP (eGFP/mCherry ratio, DMSO-normalized)” value [8] is reported as “induced to a greater extent”, the “SALL4 degradation (Western blot, in words)” value [6] is reported as “degraded IKZF3 and SALL4” and the “IKZF3 degradation (Western blot, in words)” value [7] is reported as “degraded IKZF3 and SALL4”.

Work on O=C1CCC(NC(=O)c2cc(F)ccc2F)C(=O)N1 (stereo not shown) [Compound 14] yielded a chromatographic logD [1] of 0.3, a CHIIAM [2] of 7.2 and an inhibition at 100 µM [3, 13] of 24.2%.

For CC(C)N1C(=O)NC(=O)C(C)(NC(=O)c2ccccc2)C1=O (stereo not shown) [Compound 7], the chromatographic logD [1] is given as 1.2, the CHIIAM [2] is given as 20.9 and the “Tube formation IC50” value [9] is given as “n.i”. The “MST Ki” value [10] was “n.b”, the “Neosubstrate degradation (%) SALL4” value [6] was under 5% and the “Neosubstrate degradation (%) IKZF3” value [7] was under 5%.

O=C1CCC(NC(=O)c2ccc(F)cc2)C(=O)N1 (stereo not shown) [Compound 11, N-(2,6-Dioxo-3-piperidyl)-4-fluorobenzamide] gave a chromatographic logD [1] of 0.1, a CHIIAM [2] of 10.1 and an inhibition at 100 µM [3, 13] of 17.9%.

With O=C1CCC(NC(=O)c2cccc(F)c2)C(=O)N1 (stereo not shown) [Compound 10, N-(2,6-Dioxo-3-piperidyl)-3-fluorobenzamide] the chromatographic logD [1] was 0.1, the CHIIAM [2] was 10.6 and the inhibition at 100 µM [3, 13] was 10.3%.

With O=C1CCC(NC(=O)c2cccc(F)c2F)C(=O)N1 (stereo not shown) [Compound 12] the chromatographic logD [1] was 0.3, the CHIIAM [2] was 7.6 and the inhibition at 100 µM [3, 13] was 31.1%.

With O=C1CCC(NC(=O)c2ccc(F)c(F)c2)C(=O)N1 (stereo not shown) [Compound 16] the chromatographic logD [1] was 0.6, the CHIIAM [2] was 13.6 and the inhibition at 100 µM [3, 13] was 15.5%.

Work on O=C1CCC(NC(=O)c2cc(F)c(F)c(F)c2)C(=O)N1 (stereo not shown) [Compound 19] yielded a chromatographic logD [1] of 1, a CHIIAM [2] of 17.9 and an inhibition at 100 µM [3, 13] of 8.1%.

For CC(C)N1C(=O)NC(=O)C(C)(NC(=O)c2cc(F)c(F)c(F)c2F)C1=O (stereo not shown) [Compound 8], the chromatographic logD [1] is given as 2.2, the CHIIAM [2] is given as 27.9 and the “Tube formation IC50” value [9] is given as “n.i”. The “MST Ki” value [10] was “n.b”, the “Neosubstrate degradation (%) SALL4” value [6] was under 5% and the “Neosubstrate degradation (%) IKZF3” value [7] was under 5%.

For O=C1CCC(N2C(=O)c3ccccc3C2=O)C(=O)N1 (stereo not shown) [Compound 1, thalidomide, reference compound], the chromatographic logD [1] was 0.5, the CHIIAM [2] was 12.5 and the “Effect on HUVEC proliferation” value ([4]; 100 μM) was “decreased neither HUVEC proliferation”. The “Block of tube formation” value ([9]; concentration range 12.5–100 μM) was “failed to significantly block tube formation”, the “Tube formation IC50” value [9] was “n.i.^h” and the Ki ([10]; read-out: MST Ki) was 8.55 µM.

With CC(C)N1C(=O)NC(=O)C(C)(N2C(=O)c3c(F)c(F)c(F)c(F)c3C2=O)C1=O (stereo not shown) [Compound 4] the elogD7.4 [1] was 3.0, the CHIIAM [2] was 31.6 and the “Reduction of HUVEC growth” value ([4]; 10 μM) was over 95%. For the same compound, the “Reduction of MM1.S growth” value [5] was over 95%, the “MST Ki” value [10] was “n.b” and the “Neosubstrate degradation (%) SALL4” value [6] was under 5%. For the same compound, the half-life [11] was over 1 h, the microsomal CLint at 1 h [11] was 4.6 µL/min/mg and the “Neosubstrate degradation (%) IKZF3” value [7] was under 5%.

In the case of O=C1CCC(NC(=O)c2ccccc2F)C(=O)N1 (stereo not shown) [Compound 9, N-(2,6-Dioxo-3-piperidyl)-2-fluorobenzamide], the chromatographic logD [1] is reported as -0.1, the CHIIAM [2] is reported as 5.7 and the inhibition at 100 µM [3, 13] is reported as 13.4%.

With Nc1cccc2c1C(=O)N(C1CCC(=O)NC1=O)C2=O (stereo not shown) [pomalidomide, reference compound] the “Abundance of IKZF3-GFP (eGFP/mCherry ratio, DMSO-normalized)” value [8] was “induced to a greater extent”, the “SALL4 degradation (Western blot, in words)” value [6] was “degraded IKZF3 and SALL4” and the “IKZF3 degradation (Western blot, in words)” value [7] was “degraded IKZF3 and SALL4”.

In the case of O=C1CCC(NC(=O)c2ccc(F)cc2F)C(=O)N1 (stereo not shown) [Compound 13], the chromatographic logD [1] is reported as 0.3, the CHIIAM [2] is reported as 7.2 and the inhibition at 100 µM [3, 13] is reported as 35.8%.

For O=C1CCC(NC(=O)c2ccccc2)C(=O)N1 (stereo not shown) [Compound 5], the elogD7.4 ([12]; pH 7.4) is given as −0.3^j.

With CC(C)N1C(=O)NC(=O)C(C)(N2C(=O)c3ccccc3C2=O)C1=O (stereo not shown) [Compound 3] the chromatographic logD [1] was 2.2, the CHIIAM [2] was 28.9 and the “Effect on HUVEC cell growth” value ([4]; 10 μM) was “did not affect HUVEC or MM1.S cell growth”. The “Effect on MM1.S cell growth” value [5] was “did not affect HUVEC or MM1.S cell growth”, the “Tube formation IC50” value [9] was “n.i” and the “MST Ki” value [10] was “n.b.^i”. For the same compound, the “Neosubstrate degradation (%) SALL4” value [6] was under 5%, the half-life [11] was over 1 h and the microsomal CLint at 1 h [11] was 10.3 µL/min/mg. For the same compound, the “Neosubstrate degradation (%) IKZF3” value [7] was 11%.

In the case of O=C1CCC(NC(=O)c2cc(F)c(F)cc2F)C(=O)N1 (stereo not shown) [Compound 18], the chromatographic logD [1] is reported as 0.6, the CHIIAM [2] is reported as 11.0 and the “Inhibition of tube formation (%)” value ([3]; 100 μM, 18 h, HUVECs, relative to vehicle control, n.i. = no inhibition) is reported as “n.i.^d”.

For O=C1CCC(NC(=O)c2cc(F)c(F)c(F)c2F)C(=O)N1 (stereo not shown) [Compound 6], the elogD7.4 ([12]; pH 7.4, HPLC-based method) is given as 0.9^j.
